Assay [1] in a line: Cytotoxicity against mouse L5178B1 cells transfected with pHa MDR1/A retrovirus assessed as reduction in cell viability after 72 hrs by MTT assay. The following applies: MDR1, 72 h. It counts as functional, cell-based. (Formazan colour is commonly taken as a measure of viable cells.)
The nature of assay [2]: Cytotoxicity against mouse L5178 cells assessed as reduction in cell viability after 72 hrs by MTT assay. The following applies: L5178, 72 h. In kind it is functional, cell-based.
A short description of assay [3]: Antioxidant activity assessed as hydroxyl radical scavenging activity by measuring inhibition of damage to 2-deoxy-D-ribose after 3 mins by TBA-based Fenton reaction assay. In kind it is functional.

Broadly, the IC50 is the concentration needed to halve the response being measured.

As for `O=Cc1ccc(O)cc1` [4-HYDROXYBENZALDEHYDE], the IC50 in assay [1] and in assay [2] was more than 150 µM in each case.
On to `COC(=O)/C=C/c1ccc(O)c(O)c1` [METHYLCAFFEATE], for which the results for the IC50 in assay [1] and in assay [2] were 113 µM and 104 µM, respectively.
As for `CC(C)(C)/[N+]([O-])=C/c1ccc(S(=O)(=O)O)cc1S(=O)(=O)O`, in assay [3], the IC50 came to 1830 µM.

Values taken from ChEMBL document CHEMBL4422633, “Antioxidant-Inspired Drug Discovery: Antitumor Metabolite Is Formed in Situ from a Hydroxycinnamic Acid Derivative upon Free-Radical Scavenging” (J Med Chem, 2019).
